The term EC50 denotes the concentration at which the effect is half-maximal.

Read-outs that look alike come from different tables or passages of the source.

Assay [1] deals with T1, human Cot catalytic domain (30-397 amino acids) (Homo sapiens, UniProt P41279).
T1 construct: Purified recombinant human Cot catalytic domain (30-397 amino acids) was purchased from Cama Biosciences; purchased Cama Biosciences (so in the source)
Put plainly: High Throughput Cot Biochemical Assay (KinEASE TR-FRET). In outline: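 Phosphorylation of 1 μM XL665-STK3 peptide by 5 nM Cot catalytic domain was measured by time-resolved FRET using a europium […] antibody. ATP was 400 μM; buffer was 10 mM MOPS pH 7.0 with Mg2+ and DTT.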
(In general: TR-FRET usually uses a lanthanide donor and a delayed reading to cut background.)

The subject of assay [2] is TNFα production in LPS-stimulated human monocytes. Put plainly: Cot Monocyte TNFα Cell Based Assay. Particulars: for EC50: Homo sapiens, Monocyte, read-out: EC50 TNF. The gist of the method: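 Percent-of-control values derive from TR-FRET ratios of TNFα in spun-down media, referenced to unstimulated and LPS-stimulated wells. Exposure: 1 h compound preincubation, then 50 pg/ml LPS for 4 h, both at 37 °C, with 0.5% final DMSO.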

Assay [3] deals with T2, Human EGFR, cytoplasmic domain [669-1210] (Homo sapiens, UniProt P00533).
T2 construct: purchased Cama Biosciences (so in the source)
Briefly: High Throughput EGFR Biochemical Assay (KinEASE TR-FRET). Here is the method: Example 62: High Throughput EGFR Biochemical Assay
EGFR activity was measured using KinEASE (Cisbio), a time-resolved fluorescence resonance energy transfer (TR-FRET) immunoassay. In this assay, EGFR-catalyzes the phosphorylation of a universal Tyrosine kinase peptide substrate labeled with XL665. Europium conjugated phosphor-tyrosine specific antibody binds the resulting phosphorylated peptide. Formation of phosphorylated peptide is quantified by TR-FRET with Europium as the donor and XL665 the acceptor. The assay was performed in two main steps. The first step is the kinase reaction step and the second step is the detection step with TR-FRET reagents. In brief, test compounds 1:3 serially diluted in DMSO were delivered into Corning white, low volume, non-binding 384 well plates using the Echo 550 acoustic liquid dispenser (Labcyte®). […] After 60 min of incubation at room temperature, 10 μL of Stop and Detect Solution (1:400 Europium Cryptate labeled anti-phosphorylated peptide antibody solution and 125 nM strepavidin-XL665 Tracer in a 50 mM Hepes pH 7.0 detection buffer containing sufficient EDTA) was added.

[4] abbreviates: Cot KinEASE TR-FRET, 400 μM ATP, read-out: IC50 HTRF.
The mark [5] stands for this setting: LPS-stimulated human monocytes, TNFα TR-FRET.
Where [6] appears, read: Cot biochemical HTRF (KinEASE TR-FRET) assay, read-out: IC50 HTRF.
Where [7] appears, read: TNFα in LPS-stimulated human monocytes.
[8] abbreviates: Cot KinEASE TR-FRET (HTRF) biochemical assay, 400 μM ATP, read-out: IC50 HTRF.

T1 sequence (P41279 30-397): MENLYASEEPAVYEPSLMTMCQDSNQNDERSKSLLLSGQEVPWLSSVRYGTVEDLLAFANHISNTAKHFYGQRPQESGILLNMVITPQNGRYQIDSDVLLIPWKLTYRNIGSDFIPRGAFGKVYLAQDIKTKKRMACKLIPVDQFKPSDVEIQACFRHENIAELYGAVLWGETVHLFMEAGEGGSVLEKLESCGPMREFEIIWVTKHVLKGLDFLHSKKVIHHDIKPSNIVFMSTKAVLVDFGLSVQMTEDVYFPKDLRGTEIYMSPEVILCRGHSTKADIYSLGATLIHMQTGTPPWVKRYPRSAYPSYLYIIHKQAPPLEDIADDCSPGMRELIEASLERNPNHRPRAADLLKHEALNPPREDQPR
T2 sequence (P00533 669-1210): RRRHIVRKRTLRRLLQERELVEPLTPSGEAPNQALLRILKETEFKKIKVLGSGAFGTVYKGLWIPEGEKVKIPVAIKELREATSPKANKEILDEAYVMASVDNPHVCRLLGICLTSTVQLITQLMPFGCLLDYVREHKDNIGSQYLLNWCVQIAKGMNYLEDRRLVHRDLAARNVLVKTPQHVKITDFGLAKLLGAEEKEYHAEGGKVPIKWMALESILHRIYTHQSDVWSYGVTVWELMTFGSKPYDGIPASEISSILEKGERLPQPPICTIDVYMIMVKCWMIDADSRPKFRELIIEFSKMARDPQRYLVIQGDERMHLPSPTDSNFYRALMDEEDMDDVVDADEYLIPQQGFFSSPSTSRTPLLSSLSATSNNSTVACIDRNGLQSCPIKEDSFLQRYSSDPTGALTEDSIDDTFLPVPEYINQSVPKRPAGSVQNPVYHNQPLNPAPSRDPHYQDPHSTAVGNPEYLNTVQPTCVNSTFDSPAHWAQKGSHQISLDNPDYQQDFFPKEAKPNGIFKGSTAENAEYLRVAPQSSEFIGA

Take `CCN1CCC(n2cc([C@@H](Nc3cc(Cl)c4ncc(C#N)c(Nc5ccc(F)c(Cl)c5)c4c3)c3ccccc3)nn2)CC1` [Example 919, (S)-8-chloro-4-((3-chloro-4-fluorophenyl)amino)-6-(((1-(1-ethylpiperidin-4-yl)-1H-1,2,3-triazol-4-yl)(phenyl)methyl)amino) quinoline-3-carbonitrile]: the figures for the IC50 in assay [1] (setting [4]) and in assay [3] were 2 nM and 2290 nM, respectively. For the same molecule, the concentration for a half-maximal effect (EC50) in assay [2] (setting [5]) was 62 nM. Besides, the “IC50/EC50 [nM]: EC50 (TNFα, monocytes)” value in assay [2] (second value of the cell IC50/EC50, human monocytes, 50 pg/ml LPS, 4 hours) amounted to 62 nM.

For the molecule `CC(Nc1cc(Cl)c2ncc(C#N)c(Nc3ccc(F)c(Cl)c3)c2c1)c1cn(C)nn1` (centres unmarked) [Comparative Example 4, reference compound], the IC50 was over 10000 nM in assay [1] (first value of the cell IC50/EC50, 400 μM ATP, 5 nM Cot, read-out: IC50/EC50 [nM]: IC50 (Cot)) and over 10000 nM in assay [3].

In the case of `CC(C)(C)N1CCC(n2cc([C@@H](Nc3cc(Cl)c4ncc(C#N)c(Nc5c(F)ccc(Cl)c5F)c4c3)c3ccc(Cl)cc3)nn2)CC1` [Example 694, (S)-6-(((1-(1-(tert-butyl)piperidin-4-yl)-1H-1,2,3-triazol-4-yl)(4-chlorophenyl)methyl)amino)-8-chloro-4-((3-chloro-2,6-difluorophenyl)amino)quinoline-3-carbonitrile], in assay [1] (setting [6]), the IC50 is 20 nM. In addition, the EC50 in assay [2] (setting [7]) was determined as 843 nM.

Take `[2H][C@](Nc1cc(Cl)c2ncc(C#N)c(N[C@H]3CCC[C@H](O)C3)c2c1)(c1ccc(F)cc1)c1cn(C2CC2)nn1` [Example 313, 8-chloro-6-(((S)-(1-cyclopropyl-1H-1,2,3-triazol-4-yl)(4-fluorophenyl)methyl-d)amino)-4-(((1S,3S)-3-hydroxycyclohexyl)amino) quinoline-3-carbonitrile]: the IC50 in assay [1] (setting [8]) is 39 nM. The 50% effective concentration (EC50) in assay [2] (setting [7]) came out at 527 nM.

As to `CC(C)(C)N1CCC(n2cc([C@@H](Nc3cc(Cl)c4ncc(C#N)c(Nc5cc(Cl)c(F)cc5F)c4c3)c3ccc(Cl)cc3)nn2)CC1` [Example 693, (S)-6-(((1-(1-(tert-butyl)piperidin-4-yl)-1H-1,2,3-triazol-4-yl)(4-chlorophenyl)methyl)amino)-8-chloro-4-((5-chloro-2,4-difluorophenyl)amino)quinoline-3-carbonitrile], the IC50 in assay [1] (setting [6]) is 46 nM. In addition, in assay [2] (setting [7]), the 50% effective concentration (EC50) was determined as 1540 nM.

As for `CC(C)n1cc([C@@H](Nc2cc(Cl)c3ncc(C#N)c(Nc4ccc(F)c(Cl)c4)c3c2)c2cccc(CN(C)C)c2)nn1` [Example 712, (S)-8-chloro-4-((3-chloro-4-fluorophenyl)amino)-6-(((3-((dimethylamino)methyl)phenyl)(1-isopropyl-1H-1,2,3-triazol-4-yl)methyl)amino)quinoline-3-carbonitrile], the IC50 in assay [1] (setting [6]) stood at 14 nM. The EC50 in assay [2] (setting [7]) turned out to be 498 nM.

As to `N#Cc1cnc2c(Cl)cc(N[C@H](c3c[nH]nn3)c3ccccc3Cl)cc2c1Nc1cnc(F)c(F)c1` [Example 376, (S)-8-chloro-6-(((2-chlorophenyl)(1H-1,2,3-triazol-4-yl)methyl)amino)-4-((5,6-difluoropyridin-3-yl)amino)quinoline-3-carbonitrile], the IC50 in assay [1] (setting [8]) is 47 nM. In assay [2] (setting [7]), the EC50 is 1610 nM.

For `Cc1c(-c2cnn(C)c2)cccc1[C@H](Nc1cc(C#N)c2ncc(C#N)c(NCC(C)(C)C)c2c1)c1cn(C2(C(F)(F)F)CC2)nn1` [Example 1138, (S)-6-(((2-methyl-3-(1-methyl-1H-pyrazol-4-yl)phenyl)(1-(1-(trifluoromethyl)cyclopropyl)-1H-1,2,3-triazol-4-yl)methyl)amino)-4-(neopentylamino)quinoline-3,8-dicarbonitrile], the IC50 in assay [1] (setting [4]) is 4 nM. Moreover, the 50% effective concentration (EC50) in assay [2] (setting [5]) came out at 61 nM.

In the case of `[2H][C@](Nc1cc(Cl)c2ncc(C#N)c(Nc3cnc(F)c(F)c3)c2c1)(c1ccc(F)cc1)c1cn([C@@H](C)CF)nn1` [Example 360, 8-chloro-4-((5,6-difluoropyridin-3-yl)amino)-6-(((S)-(4-fluorophenyl)(1-((S)-1-fluoropropan-2-yl)-1H-1,2,3-triazol-4-yl)methyl-d)amino)quinoline-3-carbonitrile], the IC50 in assay [1] (setting [8]) came to 21 nM. For the same molecule, in assay [2] (setting [7]), the EC50 is 423 nM.

With `CC(C)(C)C(=O)OCn1cc([C@@H](Nc2cc(Cl)c3ncc(C#N)c(Nc4ccc(F)c(Cl)c4)c3c2)c2ccccc2)nn1` [Example 668, (S)-(4-(((8-chloro-4-((3-chloro-4-fluorophenyl)amino)-3-cyanoquinolin-6-yl)amino)(phenyl)methyl)-1H-1,2,3-triazol-1-yl)methyl pivalate], in assay [1] (setting [6]), the IC50 came out at 97 nM. Also, the concentration giving a half-maximal response (EC50) in assay [2] (setting [7]) worked out at 1610 nM.

With `[2H]C(Nc1cc(Cl)c2ncc(C#N)c(N[C@H]3CCCCC3(C)C)c2c1)(c1ccc(F)cc1)c1cn(C2CC2)nn1` (stereo in doubt) [Example 319, 8-chloro-6-(((S)-(1-cyclopropyl-1H-1,2,3-triazol-4-yl)(4-fluorophenyl)methyl-d)amino)-4-(((S)-2,2-dimethylcyclohexyl)amino) quinoline-3-carbonitrile], the IC50 in assay [1] (setting [8]) stood at 372 nM. The EC50 in assay [2] (setting [7]) is 4480 nM.

Consider `[2H][C@](Nc1cc(C(F)(F)F)c2ncc(C#N)c(N[C@H](CC)c3ccccc3)c2c1)(c1ccc(F)cc1)c1cn(C2CC2)nn1` [Example 195, 6-(((S)-(1-cyclopropyl-1H-1,2,3-triazol-4-yl)(4-fluorophenyl)methyl-d)amino)-4-(((R)-1-phenylpropyl)amino)-8-(trifluoromethyl) quinoline-3-carbonitrile], for which, in assay [1] (setting [8]), the IC50 worked out at 160 nM. Besides, in assay [2] (setting [7]), the concentration giving a half-maximal response (EC50) was 1190 nM.

For the molecule `CC[C@@H](Nc1c(C#N)cnc2c(Cl)cc(N[C@H](c3cn(C4CC4)nn3)c3cccc(Cl)c3Cl)cc12)c1ccccc1` [Example 294, 8-chloro-6-(((S)-(1-cyclopropyl-1H-1,2,3-triazol-4-yl)(2,3-dichlorophenyl)methyl)amino)-4-(((R)-1-phenylpropyl)amino)quinoline-3-carbonitrile], the IC50 in assay [1] (setting [8]) came to 92 nM. Besides, in assay [2] (setting [7]), the EC50 was 1880 nM.

Turning to `CN(C)CCn1cc([C@@H](Nc2cc(Cl)c3ncc(C#N)c(Nc4ccc(F)c(Cl)c4)c3c2)c2ccccc2)nn1` [Example 793, (S)-8-chloro-4-((3-chloro-4-fluorophenyl)amino)-6-(((1-(2-(dimethylamino)ethyl)-1H-1,2,3-triazol-4-yl)(phenyl)methyl)amino) quinoline-3-carbonitrile], the IC50 in assay [1] (setting [6]) amounted to 7 nM. For the same molecule, the EC50 in assay [2] (setting [7]) is 209 nM.

For the molecule `[2H][C@](Nc1cc(Br)c2ncc(C#N)c(NCC(C)(C)C)c2c1)(c1ccc(F)cc1)c1nnn(C2CC2)c1SC` [Compound 13, (S)-8-bromo-6-(((1-cyclopropyl-5-(methylthio)-1H-1,2,3-triazol-4-yl)(4-fluorophenyl)methyl-d)amino)-4-(neopentylamino) quinoline-3-carbonitrile], in assay [1] (setting [8]), the IC50 turned out to be 71 nM. Besides, in assay [2] (setting [7]), the half-maximal effective concentration (EC50) was 221 nM.

As to `Cc1c(-c2cn[nH]c2)cccc1[C@H](Nc1cc(C#N)c2ncc(C#N)c(NCC(C)(C)C)c2c1)c1cn(C2(C(F)F)CC2)nn1` [Example 1153, (S)-6-(((1-(1-(difluoromethyl)cyclopropyl)-1H-1,2,3-triazol-4-yl)(2-methyl-3-(1H-pyrazol-4-yl)phenyl)methyl)amino)-4-(neopentylamino)quinoline-3,8-dicarbonitrile], the IC50 in assay [1] (setting [4]) was found to be 2 nM. Further, in assay [2] (setting [5]), the EC50 was determined as 42 nM.

Consider `CC(C)(C)N1CCC(n2cc([C@@H](Nc3cc(Cl)c4ncc(C#N)c(NCC5CCC5)c4c3)c3ccccc3)nn2)CC1` [Example 454, (S)-6-(((1-(1-(tert-butyl)piperidin-4-yl)-1H-1,2,3-triazol-4-yl)(phenyl)methyl)amino)-8-chloro-4-((cyclobutylmethyl)amino) quinoline-3-carbonitrile], for which the IC50 in assay [1] (setting [6]) is 49 nM. Further, the EC50 in assay [2] (setting [7]) is 1770 nM.

As for `Cc1c(-c2ccncc2)cccc1[C@H](Nc1cc(Cl)c2ncc(C#N)c(NCC(C)(C)C)c2c1)c1cn(C2(C(F)(F)F)CC2)nn1` [Example 1095, (S)-8-chloro-6-(((2-methyl-3 (pyridin-4-yl)phenyl)(1-(1-(trifluoromethyl)cyclopropyl)-1H-1,2,3-triazol-4-yl)methyl)amino)-4-(neopentylamino)quinoline-3-carbonitrile], the IC50 in assay [1] (setting [4]) came to 12 nM. Also, in assay [2] (setting [5]), the EC50 came out at 226 nM.

Values taken from patent US10316017B2, “COT modulators and methods of use thereof” (Gilead Sciences, Inc., priority 2015, dated 2019).
